# Assays:
# [1] = molecular target: T1, Poly [ADP-ribose] polymerase tankyrase-2 (Homo sapiens, UniProt Q9H2K2); assay: Inhibition of N-terminal his-tagged human TNKS2 expressed in Escherichia coli Rosette2 (DE3)
# T1 sequence (Q9H2K2 whole entry): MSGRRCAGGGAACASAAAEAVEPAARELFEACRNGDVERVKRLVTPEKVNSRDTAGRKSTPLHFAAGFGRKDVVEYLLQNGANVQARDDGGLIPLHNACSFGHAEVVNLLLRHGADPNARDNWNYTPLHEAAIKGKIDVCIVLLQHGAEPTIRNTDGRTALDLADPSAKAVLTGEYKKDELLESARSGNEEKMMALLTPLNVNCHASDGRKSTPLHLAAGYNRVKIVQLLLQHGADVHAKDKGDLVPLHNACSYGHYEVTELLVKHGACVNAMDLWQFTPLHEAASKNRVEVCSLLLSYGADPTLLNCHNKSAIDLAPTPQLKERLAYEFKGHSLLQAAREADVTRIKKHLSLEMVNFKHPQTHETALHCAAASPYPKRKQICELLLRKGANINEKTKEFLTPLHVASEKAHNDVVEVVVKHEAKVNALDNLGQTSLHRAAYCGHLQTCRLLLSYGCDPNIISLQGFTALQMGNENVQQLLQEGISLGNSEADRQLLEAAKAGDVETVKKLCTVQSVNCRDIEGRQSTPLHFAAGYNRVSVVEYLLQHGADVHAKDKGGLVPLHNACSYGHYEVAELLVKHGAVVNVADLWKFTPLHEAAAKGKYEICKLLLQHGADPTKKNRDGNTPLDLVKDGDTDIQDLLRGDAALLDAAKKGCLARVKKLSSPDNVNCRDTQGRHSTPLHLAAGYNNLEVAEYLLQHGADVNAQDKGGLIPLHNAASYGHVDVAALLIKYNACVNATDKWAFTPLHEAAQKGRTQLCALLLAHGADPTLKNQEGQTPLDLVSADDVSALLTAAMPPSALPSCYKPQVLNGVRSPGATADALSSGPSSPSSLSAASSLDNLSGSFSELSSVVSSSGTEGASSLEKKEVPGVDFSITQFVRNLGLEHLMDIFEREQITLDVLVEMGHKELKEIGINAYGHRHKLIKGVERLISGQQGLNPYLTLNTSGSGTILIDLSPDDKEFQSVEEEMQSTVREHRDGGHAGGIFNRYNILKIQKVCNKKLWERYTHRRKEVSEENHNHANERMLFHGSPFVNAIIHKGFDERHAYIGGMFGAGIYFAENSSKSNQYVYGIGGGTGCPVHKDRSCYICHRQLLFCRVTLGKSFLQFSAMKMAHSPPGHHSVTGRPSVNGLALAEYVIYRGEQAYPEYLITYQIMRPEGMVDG
# [2] = molecular target: Poly [ADP-ribose] polymerase 2 (Homo sapiens, UniProt Q9UGN5); assay: Inhibition of N-terminal his-tagged human PARP2 expressed in Escherichia coli Rosette2 (DE3)
# [3] = molecular target: Protein mono-ADP-ribosyltransferase PARP14 (Homo sapiens, UniProt Q460N5); assay: Inhibition of N-terminal his-tagged human PARP14 expressed in Escherichia coli Rosette2 (DE3)
# [4] = molecular target: T2, Protein mono-ADP-ribosyltransferase PARP10 (Homo sapiens, UniProt Q53GL7); assay: Inhibition of C-terminal his-tagged human PARP10 expressed in Escherichia coli Rosette2 (DE3)
# T2 sequence (Q53GL7 whole entry): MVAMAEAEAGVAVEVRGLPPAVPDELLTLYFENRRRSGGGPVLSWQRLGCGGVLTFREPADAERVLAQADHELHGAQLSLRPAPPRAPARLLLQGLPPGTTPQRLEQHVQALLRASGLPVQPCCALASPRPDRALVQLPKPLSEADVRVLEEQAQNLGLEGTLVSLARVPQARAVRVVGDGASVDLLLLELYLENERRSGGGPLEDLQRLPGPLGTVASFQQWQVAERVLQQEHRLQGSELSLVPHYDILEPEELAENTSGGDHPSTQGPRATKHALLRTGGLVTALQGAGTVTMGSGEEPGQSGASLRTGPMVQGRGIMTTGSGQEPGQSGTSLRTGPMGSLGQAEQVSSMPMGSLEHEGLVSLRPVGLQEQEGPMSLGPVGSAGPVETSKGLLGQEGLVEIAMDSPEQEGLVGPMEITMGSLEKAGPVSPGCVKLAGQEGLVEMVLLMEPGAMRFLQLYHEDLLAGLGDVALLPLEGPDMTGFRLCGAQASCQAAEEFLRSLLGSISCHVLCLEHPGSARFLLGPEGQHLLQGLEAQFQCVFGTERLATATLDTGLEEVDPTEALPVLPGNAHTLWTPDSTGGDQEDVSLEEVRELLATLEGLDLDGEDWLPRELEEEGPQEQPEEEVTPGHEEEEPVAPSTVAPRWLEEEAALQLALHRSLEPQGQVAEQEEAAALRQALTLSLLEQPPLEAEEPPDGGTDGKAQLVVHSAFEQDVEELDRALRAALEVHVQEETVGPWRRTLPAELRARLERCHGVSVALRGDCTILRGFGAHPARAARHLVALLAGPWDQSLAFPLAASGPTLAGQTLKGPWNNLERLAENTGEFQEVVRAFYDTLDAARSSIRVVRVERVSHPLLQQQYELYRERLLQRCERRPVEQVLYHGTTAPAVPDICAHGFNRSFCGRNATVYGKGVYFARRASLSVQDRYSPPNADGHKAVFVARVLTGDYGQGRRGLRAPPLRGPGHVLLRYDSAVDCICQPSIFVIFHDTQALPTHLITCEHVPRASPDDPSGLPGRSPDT
# Sequence of Protein mono-ADP-ribosyltransferase PARP14 (Q460N5 whole entry): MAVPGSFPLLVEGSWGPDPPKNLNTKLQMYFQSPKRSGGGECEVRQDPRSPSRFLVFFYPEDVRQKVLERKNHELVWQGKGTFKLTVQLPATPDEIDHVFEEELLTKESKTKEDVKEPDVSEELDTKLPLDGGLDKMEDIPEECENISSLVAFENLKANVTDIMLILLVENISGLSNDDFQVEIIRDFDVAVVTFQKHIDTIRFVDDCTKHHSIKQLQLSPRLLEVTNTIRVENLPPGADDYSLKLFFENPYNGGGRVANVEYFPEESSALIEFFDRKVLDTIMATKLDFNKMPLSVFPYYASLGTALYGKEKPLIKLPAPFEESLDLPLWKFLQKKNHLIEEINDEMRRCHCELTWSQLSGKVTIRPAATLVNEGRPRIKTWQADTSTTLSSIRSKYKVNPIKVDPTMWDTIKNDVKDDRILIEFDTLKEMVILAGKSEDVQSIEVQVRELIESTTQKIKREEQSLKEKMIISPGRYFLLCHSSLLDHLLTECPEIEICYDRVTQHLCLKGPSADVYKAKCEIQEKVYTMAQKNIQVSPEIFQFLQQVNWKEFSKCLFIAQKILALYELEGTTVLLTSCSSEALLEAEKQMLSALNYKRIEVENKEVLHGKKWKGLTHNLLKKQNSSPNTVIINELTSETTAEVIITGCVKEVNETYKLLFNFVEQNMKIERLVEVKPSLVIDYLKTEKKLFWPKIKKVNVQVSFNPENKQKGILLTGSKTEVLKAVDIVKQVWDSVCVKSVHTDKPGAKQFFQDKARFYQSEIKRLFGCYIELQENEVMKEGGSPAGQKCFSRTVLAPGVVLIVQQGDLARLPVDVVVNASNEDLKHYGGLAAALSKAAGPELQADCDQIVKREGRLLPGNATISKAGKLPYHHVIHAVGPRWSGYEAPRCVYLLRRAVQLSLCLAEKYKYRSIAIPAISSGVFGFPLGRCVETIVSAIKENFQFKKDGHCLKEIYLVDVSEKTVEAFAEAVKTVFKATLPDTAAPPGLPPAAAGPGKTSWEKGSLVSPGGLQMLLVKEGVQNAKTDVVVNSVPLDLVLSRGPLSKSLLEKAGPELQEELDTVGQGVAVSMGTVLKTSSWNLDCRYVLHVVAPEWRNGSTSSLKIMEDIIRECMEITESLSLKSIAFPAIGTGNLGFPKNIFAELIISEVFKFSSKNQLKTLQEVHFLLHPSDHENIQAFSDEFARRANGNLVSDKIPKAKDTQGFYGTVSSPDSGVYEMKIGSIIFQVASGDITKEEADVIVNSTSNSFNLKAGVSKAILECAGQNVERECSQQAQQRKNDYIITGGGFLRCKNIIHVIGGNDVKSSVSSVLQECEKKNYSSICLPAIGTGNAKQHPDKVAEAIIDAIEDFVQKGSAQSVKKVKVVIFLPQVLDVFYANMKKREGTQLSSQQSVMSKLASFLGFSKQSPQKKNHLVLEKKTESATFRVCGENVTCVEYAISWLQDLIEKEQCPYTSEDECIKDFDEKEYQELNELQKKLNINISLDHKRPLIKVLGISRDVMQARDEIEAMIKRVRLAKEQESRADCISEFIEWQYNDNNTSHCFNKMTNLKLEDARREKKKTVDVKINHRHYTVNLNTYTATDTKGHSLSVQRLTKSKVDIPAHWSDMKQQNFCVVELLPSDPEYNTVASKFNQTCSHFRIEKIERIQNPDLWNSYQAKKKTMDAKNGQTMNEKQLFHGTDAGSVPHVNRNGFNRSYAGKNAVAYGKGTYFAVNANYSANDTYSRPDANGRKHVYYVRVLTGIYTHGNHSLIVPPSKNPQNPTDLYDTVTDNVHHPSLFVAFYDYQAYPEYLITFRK
# Sequence of Poly [ADP-ribose] polymerase 2 (Q9UGN5 whole entry): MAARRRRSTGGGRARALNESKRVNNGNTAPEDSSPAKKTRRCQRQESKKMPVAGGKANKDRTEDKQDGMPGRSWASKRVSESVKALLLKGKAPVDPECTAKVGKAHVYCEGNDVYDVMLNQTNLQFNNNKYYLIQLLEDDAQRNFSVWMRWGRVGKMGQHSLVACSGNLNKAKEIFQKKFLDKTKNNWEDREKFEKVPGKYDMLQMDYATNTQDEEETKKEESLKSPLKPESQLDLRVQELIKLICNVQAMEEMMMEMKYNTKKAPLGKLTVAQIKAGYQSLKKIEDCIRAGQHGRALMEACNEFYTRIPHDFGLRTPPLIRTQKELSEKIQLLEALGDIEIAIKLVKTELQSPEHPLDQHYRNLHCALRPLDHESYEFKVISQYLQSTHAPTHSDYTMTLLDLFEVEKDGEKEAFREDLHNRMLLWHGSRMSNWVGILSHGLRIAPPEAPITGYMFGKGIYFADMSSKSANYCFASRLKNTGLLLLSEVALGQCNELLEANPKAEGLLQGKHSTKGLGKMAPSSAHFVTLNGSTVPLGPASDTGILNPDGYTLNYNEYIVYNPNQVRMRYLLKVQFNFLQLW
Compound,IC50 [1] [µM],IC50 [2] [µM],IC50 [3] [µM],IC50 [4] [µM]
NC(=O)c1ccc(Oc2cccc(C(N)=O)c2)cc1,6.5,1.7,41,0.48
N#Cc1ccc(Oc2ccc(C(N)=O)cc2)cc1,> 100,27,> 100,3.64

# Reference: ChEMBL document CHEMBL5120882, “Medicinal Chemistry Perspective on Targeting Mono-ADP-Ribosylating PARPs with Small Molecules” (J Med Chem, 2022)
